Source: ChEMBL document CHEMBL1135608, “Discovery of the first nonpeptide agonist of the GPR14/urotensin-II receptor: 3-(4-chlorophenyl)-3-(2- (dimethylamino)ethyl)isochroman-1-one (AC-7954)” (J Med Chem, 2002)

Legend:
[1] = Lipophilicity of the compound; assay type: physicochemical; conditions: octanol/water
[2] = Dissociation constant of the compound; assay type: physicochemical
Urotensin-2 receptor [3] = molecular target: T1, Urotensin-2 receptor (Homo sapiens, UniProt Q9UKP6); assay: Potency against human Urotensin 2 receptor
T1 sequence (Q9UKP6 whole entry): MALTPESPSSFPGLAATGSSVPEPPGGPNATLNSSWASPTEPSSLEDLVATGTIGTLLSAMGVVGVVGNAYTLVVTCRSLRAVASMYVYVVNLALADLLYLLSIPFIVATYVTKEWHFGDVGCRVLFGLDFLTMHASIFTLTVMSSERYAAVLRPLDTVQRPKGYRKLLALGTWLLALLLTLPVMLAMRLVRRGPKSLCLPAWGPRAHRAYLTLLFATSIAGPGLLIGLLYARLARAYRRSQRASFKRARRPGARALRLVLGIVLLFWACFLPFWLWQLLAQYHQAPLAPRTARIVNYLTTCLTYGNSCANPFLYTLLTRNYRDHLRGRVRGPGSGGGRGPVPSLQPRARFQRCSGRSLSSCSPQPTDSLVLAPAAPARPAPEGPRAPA

Urotensin-2 receptor [4] = molecular target: T2, Urotensin-2 receptor (Rattus norvegicus, UniProt P49684); assay: Potency against rat Urotensin 2 receptor
T2 sequence (P49684 whole entry): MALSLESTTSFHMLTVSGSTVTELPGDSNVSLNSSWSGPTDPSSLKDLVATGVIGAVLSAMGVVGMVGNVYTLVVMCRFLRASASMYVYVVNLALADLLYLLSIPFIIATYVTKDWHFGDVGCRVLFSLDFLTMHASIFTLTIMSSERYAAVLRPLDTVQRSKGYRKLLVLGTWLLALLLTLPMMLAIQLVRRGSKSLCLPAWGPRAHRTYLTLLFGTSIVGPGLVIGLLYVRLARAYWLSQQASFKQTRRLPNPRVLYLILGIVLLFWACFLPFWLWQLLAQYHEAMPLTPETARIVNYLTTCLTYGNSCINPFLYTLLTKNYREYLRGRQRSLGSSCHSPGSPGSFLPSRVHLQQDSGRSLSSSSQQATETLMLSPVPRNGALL

Row | Structure (SMILES) | logD [1] | pKa [2] | EC50 (Urotensin-2 receptor [3]) [nM] | EC50 (Urotensin-2 receptor [4]) [nM]
1 | CN(C)CCC1(c2ccc(Cl)cc2)Cc2ccccc2C(=O)O1 (stereo in doubt; 1) | 2.1 | 8.7 | 316 | 200
2 | CN(C)CCC1(c2ccc(Cl)cc2)Cc2ccccc2C(=O)O1 (single isomer, unassigned; (+)) | – | – | 251 | –
